Experiment [1] in a line: I.C.V. fluorosamine in mouse model of late-stage type-2 diabetes (HFHS plus low dose streptozotocin). As to conditions: I.C.V. daily for 14 days, HFHS plus low dose streptozotocin mice. The experiment is classed as in vivo. The method, then:
Mice were maintained on a 12 h light-dark cycle in a temperature-controlled high-barrier facility with free access to food and water per NHMRC Australian Code of Practice for the Care and Use of Animals. C57BL/6J and Balb/C mice were sourced from the Animal Resources Centre, Australian, whereas Agrp-IRES-Cre (Strain #:012899), db/db (strain #: 000697), Npy-GFP (Strain #:006417), Pomc-GFP (Strain #:009593), LSL-Cas9 (Strain #:028551), NZO (Strain #:002105) mice were sourced from Jackson Laboratories, USA. […]
Metabolic measurements were undertaken in the Melbourne Mouse Metabolic Phenotyping Platform (The University of Melbourne, Australia). […] The areas under glucose excursion curves were determined and expressed as mmol/1×min. Fasted (12 h fast) plasma insulin or glucose levels were determined using a Rat/Mouse Insulin ELISA (EZRMI-13K, Merck Millipore, CA) or an Accu-Check glucometer respectively. The HOMA-IR was calculated using the equation [(glucose×insulin)/405]. Adiposity was measured using TD-NMR minispec (Bruker Optics Inc., Billerica, MA). […]

A short description of experiment [2]: Intranasal PZ6005 in diet-induced obese mice: food intake and energy expenditure. Format: in vivo, mouse. As to conditions: I.N. 1 or 5 mg/animal/day, Day 8-Day 11 of treatment, diet-induced obesity. The method, then: (§1) Mice were acclimated for 24 h and then monitored for 48 h in an environmentally controlled Promethion Metabolic Screening System (Sable Systems International, NV) fitted with indirect open circuit calorimetry, food consumption and activity monitors to measure activity, caloric intake and energy expenditure. Respiratory quotients were calculated as the ratio of CO2 production over O2 consumption respiratory exchange ratio and energy expenditure was calculated using the Weir equation (Kcal h-1=60×(0.003941×VO2+0.001106×VCO2). To account for difference in body mass/composition energy expenditure was analysed and adjusted using ANCOVA using scripts available at the National Mouse Metabolic Phenotyping Centers (MMPC, Nashville, TN, USA) Energy Expenditure Analysis Page (https://www.mmpc.org/shared/regression.aspx).
Conscious mice were restrained by scruffing and inverted parallel to the floor with the chin at ˜180-degree angle with the neck. Using a 10 μL tip, a pipettor was loaded with 5 μl of vehicle (ddH2O) or fluorosamine (1 mg/animal in 20 μl or 5 mg/animal in 20 μl). The tip of the filled pipettor was placed near the left nostril at a 45-degree angle, and the drug was ejected to form a small 5 μl droplet at tip for the mouse to inhale. […]

Experiment [3] in a line: I.C.V. fluorosamine in obese AgRP-Cas9 mice given AAV-gScrambled or AAV-gIR. As to conditions: 100 μg/animal I.C.V. daily for 10 days. The experiment is classed as in vivo, mouse. The method, then: Metabolic measurements were undertaken in the Melbourne Mouse Metabolic Phenotyping Platform (The University of Melbourne, Australia). Glucose tolerance tests were performed on 6 h fasted conscious mice respectively by injecting D-glucose (2 mg/g of lean body mass and 1 mg/g lean mass for db/db and HFHS+STZ mice) into the peritoneal cavity and measuring glucose in tail blood immediately before and at 15, 30, 45, 60, 90 and 120 min after injection using an Accu-Check glucometer (Roche, Germany). The areas under glucose excursion curves were determined and expressed as mmol/1×min. Fasted (12 h fast) plasma insulin or glucose levels were determined using a Rat/Mouse Insulin ELISA (EZRMI-13K, Merck Millipore, CA) or an Accu-Check glucometer respectively. The HOMA-IR was calculated using the equation [(glucose×insulin)/405]. Adiposity was measured using TD-NMR minispec (Bruker Optics Inc., Billerica, MA).
as §1
Under isoflurane anaesthetic 12-week HFHS fed C57BL/6J or AgRP-Cas9 mice were implanted stereotaxically with guide cannulas into the right lateral ventricle (0.2 mm posterior, 1.0 mm lateral from bregma). Guide cannula was positioned 1.3 mm above the injection site (1 mm ventral to the surface of the skull). AgRP-Cas9 mice were treated with either AAV-gScrambled or AAV-gIR and underwent guide cannula placement 7 days post AAV administration. Mice were administered I.C.V. vehicle (ddH2O), fluorosamine (100 μg/animal/day or 250 μgl/animal/day) in a volume of 2 μl/animal and all compounds were delivered approximately 1 h before lights off […].

[4] abbreviates: control AAV-gScrambled AgRP-Cas9 mice.

Results on one compound are retold here after US20260174677A1, “METHODS OF TREATING INSULIN RESISTANCE AND ASSOCIATED DISORDERS” (The University of Melboune, priority 2022, published 2026).

For `CC(=O)NC1C(OC(C)=O)OC(COC(C)=O)[C@@H](F)C1OC(C)=O` (stereo partly drawn) [fluorosamine, per-O-acetylated-4-F-N-acetylglucosamine], the “remission of metabolic disease (daily blood glucose, glucose tolerance)” value in experiment [1] is given as “promote the remission of metabolic disease”. Further, in experiment [2], the energy expenditure result is on record as “increases energy expenditure” and the food intake result is “decreases food intake”. For the same compound, the “positive metabolic outcomes of treatment” value in experiment [3] (AAV-IR AgRP-Cas9 mice (AgRP insulin receptor disrupted)) is given as “mitigated, at least in part”. In addition, in experiment [3] (setting [4]), the adiposity result is “reduced adiposity”, the body weight entry was “promoted weight loss”, the caloric intake result was “attenuated caloric intake” and the energy expenditure result is given as “enhanced energy expenditure independently of ambulatory activity”. Besides, the glycaemic control result in experiment [3] (setting [4]) is listed as “improved glycaemic control”.
